Consider 4 compounds from paper PMC4342272 (Journal of the American Chemical Society, 2015).

This experiment has as its target c-Abl (Homo sapiens, UniProt P00519). Description: Dose-response inhibition assay, AbAStide time-resolved Tb3+ luminescence. It counts as biochemical.

Structures are written as SMILES. pIC50: −log10 of the molar value.

c-Abl, sequence (P00519 whole entry): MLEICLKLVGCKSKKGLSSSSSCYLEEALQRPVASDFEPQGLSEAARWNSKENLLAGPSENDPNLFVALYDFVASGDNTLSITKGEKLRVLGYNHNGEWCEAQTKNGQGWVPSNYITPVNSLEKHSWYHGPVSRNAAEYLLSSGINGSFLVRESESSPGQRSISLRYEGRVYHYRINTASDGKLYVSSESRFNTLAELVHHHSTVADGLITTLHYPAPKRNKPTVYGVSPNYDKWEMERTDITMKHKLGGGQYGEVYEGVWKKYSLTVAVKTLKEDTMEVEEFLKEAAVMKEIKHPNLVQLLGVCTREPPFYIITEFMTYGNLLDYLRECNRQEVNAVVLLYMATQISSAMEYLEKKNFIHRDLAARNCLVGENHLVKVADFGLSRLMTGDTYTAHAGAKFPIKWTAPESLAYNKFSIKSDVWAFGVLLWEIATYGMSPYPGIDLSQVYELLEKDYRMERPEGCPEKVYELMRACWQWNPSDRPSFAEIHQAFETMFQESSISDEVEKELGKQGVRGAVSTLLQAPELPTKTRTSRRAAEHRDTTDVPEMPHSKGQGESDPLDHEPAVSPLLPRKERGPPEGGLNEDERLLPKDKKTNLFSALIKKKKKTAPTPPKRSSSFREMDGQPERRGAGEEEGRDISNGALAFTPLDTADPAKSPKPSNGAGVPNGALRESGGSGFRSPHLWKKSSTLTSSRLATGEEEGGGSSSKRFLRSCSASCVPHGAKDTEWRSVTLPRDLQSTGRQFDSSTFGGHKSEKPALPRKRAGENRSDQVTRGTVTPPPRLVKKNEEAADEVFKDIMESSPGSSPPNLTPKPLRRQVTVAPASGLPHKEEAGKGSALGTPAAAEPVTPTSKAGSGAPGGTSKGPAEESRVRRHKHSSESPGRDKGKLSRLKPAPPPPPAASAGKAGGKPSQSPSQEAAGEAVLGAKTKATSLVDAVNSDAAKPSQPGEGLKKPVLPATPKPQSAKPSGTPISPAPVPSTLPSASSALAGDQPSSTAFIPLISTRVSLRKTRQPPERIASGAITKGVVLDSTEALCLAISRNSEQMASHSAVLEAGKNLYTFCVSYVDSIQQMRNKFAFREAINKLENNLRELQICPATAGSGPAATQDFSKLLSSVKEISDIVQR

Take `COC(=O)Nc1nc2ccc(Oc3ccc(NC(=O)Nc4cc(C(F)(F)F)ccc4F)cc3)cc2s1` [GW693917A]: the pIC50 is 9.28. As to `c1ccc(-c2n[nH]cc2-c2ccnc(-c3ccc(OCCn4ccnc4)cc3)c2)nc1` [GW711782X], the pIC50 was 8.72. Compound `COc1cc(C=NNc2ncnc3c2cnn3-c2ccccc2)ccc1O` [GW513184X] had a pIC50 of 9.46.

In the case of `COC(=O)Nc1nc2ccc(Sc3ccc(NC(=O)Nc4cc(C(F)(F)F)ccc4F)cc3)cc2[nH]1` [GW607049C], under “AbAStide biosensor, negative compounds from HTS”, the “inhibition of Abl in dose-response kinase assay” value was “no inhibition”.
